# Assay results taken from patent US4628089A, “Pyrido(2,3-D)pyrimidines” (Southern Research Institute, priority 1985, dated 1986).
# Key:
# [1] = system: mammalian dihydrofolate reductase; settings: Grivsky et al., J. Med. Chem., 23, 327 (1980); cited from earlier work
# hypertensive rat = settings: L. R. Bennett et al, J. Med. Chem., 24, 382 (1981); cited from earlier work
# thymidylate synthetase = settings: background; cited from earlier work
# [2] = system: Human epidermoid carcinoma cell No. 2; test: Cell culture cytotoxicity, inhibition of colony formation after 12 days; format: cell-based; settings: 288 h, colony formation after 12 days in plastic flask, read-out: ED50 (concentration inhibiting colony formation by 50%)
# Excerpt: ^a Human epidermoid carcinoma cell No. 2.
# ^c Concentrations inhibiting colony formation by 50% after 12 days as
# determined in plastic flask.
# [3] = system: lymphocytic leukemia P388; test: Activity against lymphocytic leukemia P388 in mice; format: in vivo, mouse (CDF1 mice); settings: ip, qd 1-5 days, 10^6 P388 cells ip, CDF1 mice
# dihydrofolate reductase = settings: background; cited from earlier work
structure (smiles),measurement,setting,value
COc1ccc(OC)c(Cc2cnc3nc(N)nc(N)c3c2C)c1,inhibition of mammalian dihydrofolate reductase,[1],potent lipid-soluble inhibitor of mammalian dihydrofolate reductase
Cc1ncc2cc(-c3c(Cl)cccc3Cl)c(N)nc2n1,blood pressure in the hypertensive rat,hypertensive rat,lowered blood pressure
"C#CCN(Cc1ccc2nc(N)nc(O)c2c1)c1ccc(C(=O)N[C@@H](CCC(=O)O)C(=O)O)cc1 [5,8-dideaza-10-propargylfolic acid, N-[4-[N-[(2-amino-4-hydroxy-6-quinazolinyl)methyl]prop-2-ynylamino]benzoyl]-L-glutamic acid]",inhibition of thymidylate synthetase,thymidylate synthetase,potent inhibitor of thymidylate synthetase
"CN(Cc1cnc2nc(N)[nH]c(=O)c2c1)c1ccc(C(=O)N[C@@H](CCC(=O)O)C(=O)O)cc1 [I (R = CH3), N-[4[[(2-amino-4(3H)-oxopyrido[2,3-d]-pyrimidin-6-yl)methyl]methylamino]benzoyl]-L-glutamic acid]",IC50,[2],11200 nM
same,% ILS,[3]; 200 mg/kg,11%
"Nc1nc2ncc(CNc3ccc(C(=O)N[C@@H](CCC(=O)O)C(=O)O)cc3)cc2c(=O)[nH]1 [I (R = H), N-[4-[(2-Amino-4(3H)-oxopyrido[2,3-d]pyrimidin-6-yl)methylamino]benzoyl]-L-glutamic Acid]",IC50,[2],6100 nM
same,% ILS,[3]; 100 mg/kg,17%
"CN(Cc1cnc2nc(N)nc(N)c2c1)c1ccc(C(=O)N[C@@H](CCC(=O)O)C(=O)O)cc1 [II (R = CH3), N-[4-[[(2,4-Diaminopyrido[2,3-d]pyrimidine-6-yl)methyl]methylamino]benzoyl]-L-glutamic acid]",IC50,[2],4 nM
same,30th day survivor,[3]; 4 mg/kg,One
same,% ILS,[3]; 4 mg/kg,92%
"Nc1nc(N)c2cc(CNc3ccc(C(=O)N[C@@H](CCC(=O)O)C(=O)O)cc3)cnc2n1 [II (R = H), N-[4-[(2,4-Diaminopyrido[2,3-d]pyrimidine-6-yl)methylamino]benzoyl]-L-glutamic acid]",IC50,[2],13 nM
"CN(Cc1cnc2nc(N)nc(N)c2n1)c1ccc(C(=O)N[C@@H](CCC(=O)O)C(=O)O)cc1 [Methotrexate, reference compound]",IC50,[2],1 nM
same,inhibition of dihydrofolate reductase,dihydrofolate reductase,Powerful dihydrofolate reductase inhibitors
"CCOC(=O)CC[C@H](NC(=O)c1ccc(NCc2cnc3nc(N)nc(N)c3c2)cc1)C(=O)OCC [VII (R = H; R1 = C2 H5), Diethyl N-[4-[(2,4-diaminopyrido[2,3-d]pyrimidine-6-yl)methylamino]benzoyl]-L-glutamate]",IC50,[2],52 nM
same,% ILS,[3]; 1 mg/kg,118%
